Source: patent US12391698B2, “Substituted piperidines and piperazines and methods for the treatment of CNS disorders” (SUVEN LIFE SCIENCES LIMITED, priority 2022, dated 2025)
Where a name gives a salt, the structure may show the parent alone.

Key:
[1] = biological target: T1, cloned human 5-HT2A receptor (Homo sapiens, UniProt P28223); assay: Determination of Ki at 5-HT2A receptor (radioligand binding, [3H]-Ketanserine); conditions: CHO-K1 recombinant cells; [3H]-Ketanserine 1.25 nM; read-out: Ki h5-HT2A
T1 construct: expressed in transfected cells; host or cells: CHO-K1
Method: (§1) Compounds were tested according to the following procedure.
• Receptor source: Recombinant mammalian cells (CHO-K1) • Radioligand: [^3H]-Ketanserine (41.9 Ci/mmol) • Final ligand concentration: 1.25 nM • Non-specific determinant: 0.1 mM 1-Napthyl piperazine (1-NP) • Reference compound: 1-Napthyl piperazine (1-NP) • Positive control: 1-Napthyl piperazine (1-NP) Incubation Conditions:
(§2) Reactions were carried out in buffer with pH 7.4 containing 50 mM Tris-HCl, 4 mM CaCl2), 0.1% Ascorbic acid for 1 h at r.t. The reaction was terminated by rapid vacuum filtration onto the glass fiber filters. Radioactivity trapped onto the filters was determined and compared to the control values in order to ascertain any interactions of the test compound(s) with cloned human 5-HT2A receptor binding site.

[2] = biological target: cloned human SERT receptor (Homo sapiens, UniProt P31645); assay: Determination of Ki at SERT receptor (SPA binding, [3H]-Citalopram); conditions: HEK293 recombinant cells; [3H]-Citalopram 2 nM; cells printed in μM; read-out: Ki hSERT
Method: as §1
• Receptor source: Recombinant mammalian cells (HEK293) • Radioligand: [^3H]-Citalopram (80.8 Ci/mmol) • Final ligand concentration: 2 nM • Non-specific determinant: 0.1 mM Venlafaxine • Reference compound: Venlafaxine • Positive control: Venlafaxine Incubation Conditions:
Reactions were carried out in buffer with pH 7.4 containing 50 mM Tris-HCl, 150 mM NaCl, 5 mM KCl and scintillation proximity assay (SPA) beads (0.1 mg/well) for 3 h at r.t. Radioactivity proximal to SPA beads was determined by scintillation proximity assay and compared to the control values in order to ascertain any interactions of the test compound(s) with cloned human SERT receptor binding site.
Reference: Journal of Pharmacology and Experimental Therapeutics, 1987, 242 (1), 364-371.

[3] = biological target: T2, cloned human 5-HT1A receptor (Homo sapiens, UniProt P08908); assay: Determination of Ki at 5-HT1A receptor (radioligand binding, [3H]-8-Hydroxy DPAT); conditions: HEK293-EBNA recombinant cells; [3H]-8-Hydroxy DPAT 0.8 nM; read-out: Ki h5-HT1A
T2 construct: expressed in transfected cells; host or cells: HEK293-EBNA
T2 sequence (P08908 1-422): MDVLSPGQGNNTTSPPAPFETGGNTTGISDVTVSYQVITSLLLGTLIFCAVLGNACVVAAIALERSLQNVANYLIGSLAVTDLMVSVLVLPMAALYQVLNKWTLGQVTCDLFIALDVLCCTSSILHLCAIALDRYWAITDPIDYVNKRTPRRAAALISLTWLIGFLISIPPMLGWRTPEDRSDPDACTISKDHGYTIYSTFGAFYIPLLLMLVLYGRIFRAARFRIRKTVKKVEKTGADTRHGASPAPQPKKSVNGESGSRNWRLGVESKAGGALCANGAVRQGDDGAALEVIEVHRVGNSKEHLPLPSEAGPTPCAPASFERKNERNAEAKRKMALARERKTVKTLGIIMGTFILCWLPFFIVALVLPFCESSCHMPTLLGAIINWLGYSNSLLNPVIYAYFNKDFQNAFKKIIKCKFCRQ
Method: as §1
• Receptor source: Recombinant mammalian cells (HEK293-EBNA) • Radioligand: [^3H]-8-Hydroxy DPAT (200 Ci/mmol) • Final ligand concentration: 0.8 nM • Non-specific determinant: 0.1 mM U92016A • Reference compound: U92016A • Positive control: U92016A Incubation Conditions:
as §2, with “Tris-HCl, 0.5” for “Tris-HCl, 4”, “mM EDTA, 10 mM MgSO4,” for “mM CaCl2),”, “for 2” for “for 1”, “human 5-HT1A” for “human 5-HT2A”

[4] = biological target: T3, hD2S (cloned human dopamine D2S receptor) (Homo sapiens, UniProt P14416); assay: Determination of Ki at D2S receptor (radioligand binding, [3H]-Raclopride); conditions: CHO-K1 recombinant cells; [3H]-Raclopride 4 nM; read-out: Ki hD2S
T3 construct: expressed in transfected cells; host or cells: CHO-K1
Method: as §1
• Receptor source: Recombinant mammalian cells (CHO-K1) • Radioligand: [^3H]-Raclopride (80.8 Ci/mmol) • Final ligand concentration: 4 nM • Non-specific determinant: 0.1 mM Haloperidol • Reference compound: Haloperidol • Positive control: Haloperidol Incubation Conditions:
as §2, with “Tris-HCl, 120” for “Tris-HCl, 4”, “mM NaCl, 5 mM KCl, 5 mM MgCl2, 1 mM EDTA” for “mM CaCl2), 0.1% Ascorbic acid”, “for 2” for “for 1”, “human dopamine […]” for “human 5-HT2A”

[5] = Rodent brain penetration study; assay type: in vivo; conditions: rat, brain/plasma, po, fed male Wistar rats, 3 mg/kg p.o., mean ± S.D, n = 3, read-out: Rat Brain Penetration (Cbrain/Cplasma) at 3 mg/kg, p.o. @ 1 h
Method: Male Wistar rats (260±40 g) were used as experimental animals. Three animals were housed in each cage. Animals were given water and food ad libitum throughout the experiment and maintained on a 12 h light/dark cycle.
Brain penetration was determined in discrete manner in rats. One day prior to dosing, male Wistar rats were acclimatized and randomly grouped according to their body weight. At each time point (0.50, 1 and 2 h), n=3 animals were used.
The test compounds were suitably preformulated and administered orally at (free base equivalent) 3 mg/kg. Blood samples were removed via cardiac puncture under isoflurane anesthesia. The animals were sacrificed to collect brain tissue. Plasma was separated and brain samples were homogenized. Plasma and brain homogenates were stored frozen at −20° C. until analysis. The concentrations of the test compounds in plasma and brain were determined using LC-MS/MS method.
The test compounds were quantified in plasma and brain homogenate by qualified LC-MS/MS method using suitable extraction technique in the calibration range of 1-500 ng/mL. Study samples were analyzed using calibration samples in the batch and quality control samples spread across the batch. Extent of brain-plasma ratio (Cbrain/Cplasma) was calculated.

[6] = system: Male Sprague Dawley rats; assay: Amphetamine-induced hyperlocomotion; assay type: in vivo, rat; conditions: 3 mg/kg, p.o., dosed 30 min prior to trial
Method: Male Sprague Dawley rats of 230-280 g body weight were used. Rats were weighed and randomized according to their body weights. Following day, the rats were brought to the laboratory 1 h prior to test. In the morning session, rats were habituated to open field arena for 15 min. Test compound/vehicle and amphetamine/vehicle were administered 30 min prior to the trial. After the post-dose interval, rats were placed in the open field and locomotion was recorded for a period of 15 min. Amphetamine-induced hyperlocomotion models positive symptoms of schizophrenia.

[7] = Rodent pharmacokinetic study; assay type: in vivo, Male Wistar rats; conditions: rat, plasma, mean ± S.D, n = 3
Method: Male Wistar rats (260±50 g) were used as experimental animals. Animals were housed individually in polypropylene cage. Two days prior to study, male Wistar rats were anesthetized with isoflurane for surgical placement of jugular vein catheter. Rats were randomly divided for oral (3 mg/kg) and intravenous (1 mg/kg) dosing (n=3/group) and fasted overnight before oral dosing (p.o.). However, food and water were provided ad libitum to the rats allocated for intravenous dosing.
At pre-determined time points, blood samples were collected through jugular vein and replenished with an equivalent volume of normal saline. Collected blood was transferred into a labeled eppendorf tube containing 10 μL of heparin as an anticoagulant. Typically blood samples were collected at 0.08, 0.25, 0.5, 1, 2, 4, 6, 8, and 24 h post dose. Blood samples were centrifuged at 4000 rpm for 10 min. Plasma was separated and stored frozen at −80° C. until analysis. The concentrations of the test compounds were quantified in plasma by qualified LC-MS/MS method using suitable extraction technique. The test compounds were quantified in the calibration range around 1-1000 ng/mL in plasma. Study samples were analyzed using calibration samples in the batch and quality control samples spread across the batch.
Pharmacokinetic parameters Cmax, AUCt, t1/2. Clearance and Bioavailability (F) were calculated using standard non-compartmental model by using Phoenix WinNonlin 6.0.4 version software package.

[8] = system: Rats; assay: Tardive dyskinesia test (vacuous chewing movements and tongue protrusions); assay type: in vivo, rat; conditions: 38 mg/kg, i.m. single dose, scored weekly for 4 weeks
Method: Rats weighing 200-230 g were acclimatized to the plexiglass observation cages (30×20×30 cm) equipped with mirrors for 5 min. After acclimatization, basal vacuous chewing movements (VCMs) and tongue protrusions (TPs) of the rats were quantified manually for 5 min. Rats were randomized based on the basal readings. Rats received a single dose of sesame oil (vehicle treatment) or haloperidol decanoate (38 mg/kg, i.m. positive control). Example-2, 10 mg/kg, p.o. ([…]) was administered for 4 weeks. VCMs and TPs were scored on weekly basis for 4 weeks. Tardive dyskinesia is a side effect of antipsychotic medications.

[9] = intravenous (bolus) 1 mg/kg, male Wistar rats
[10] = oral (gavage) 3 mg/kg, fasted male Wistar rats

Chain of cloned human SERT receptor (P31645 whole entry): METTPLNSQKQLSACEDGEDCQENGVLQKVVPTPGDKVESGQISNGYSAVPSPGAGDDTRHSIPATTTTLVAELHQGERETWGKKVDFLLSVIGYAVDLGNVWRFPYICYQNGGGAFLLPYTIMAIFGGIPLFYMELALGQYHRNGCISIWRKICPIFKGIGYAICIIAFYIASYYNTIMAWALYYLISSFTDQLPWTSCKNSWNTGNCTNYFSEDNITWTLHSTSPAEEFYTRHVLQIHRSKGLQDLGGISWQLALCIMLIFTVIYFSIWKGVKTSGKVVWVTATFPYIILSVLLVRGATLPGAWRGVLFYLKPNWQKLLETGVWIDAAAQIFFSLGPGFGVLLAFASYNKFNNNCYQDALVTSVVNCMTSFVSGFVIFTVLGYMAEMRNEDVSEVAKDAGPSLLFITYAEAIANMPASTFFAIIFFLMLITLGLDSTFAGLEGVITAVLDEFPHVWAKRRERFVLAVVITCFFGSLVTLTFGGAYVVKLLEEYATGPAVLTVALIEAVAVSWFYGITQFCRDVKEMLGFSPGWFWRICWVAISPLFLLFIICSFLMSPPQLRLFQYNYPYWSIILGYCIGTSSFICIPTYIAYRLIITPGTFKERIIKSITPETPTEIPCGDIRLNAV
T3 sequence (P14416 1-414 isoform P14416-2): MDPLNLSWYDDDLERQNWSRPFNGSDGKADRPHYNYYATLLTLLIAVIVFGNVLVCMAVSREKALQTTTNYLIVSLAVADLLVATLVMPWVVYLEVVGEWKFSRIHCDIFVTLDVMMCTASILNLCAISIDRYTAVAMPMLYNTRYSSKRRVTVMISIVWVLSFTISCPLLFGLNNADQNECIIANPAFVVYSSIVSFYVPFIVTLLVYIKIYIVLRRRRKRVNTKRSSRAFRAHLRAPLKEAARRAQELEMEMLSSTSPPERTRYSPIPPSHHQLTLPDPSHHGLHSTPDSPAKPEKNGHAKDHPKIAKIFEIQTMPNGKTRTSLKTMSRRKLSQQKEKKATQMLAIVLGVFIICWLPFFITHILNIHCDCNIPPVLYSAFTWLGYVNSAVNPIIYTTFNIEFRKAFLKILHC
T1 sequence (P28223 whole entry): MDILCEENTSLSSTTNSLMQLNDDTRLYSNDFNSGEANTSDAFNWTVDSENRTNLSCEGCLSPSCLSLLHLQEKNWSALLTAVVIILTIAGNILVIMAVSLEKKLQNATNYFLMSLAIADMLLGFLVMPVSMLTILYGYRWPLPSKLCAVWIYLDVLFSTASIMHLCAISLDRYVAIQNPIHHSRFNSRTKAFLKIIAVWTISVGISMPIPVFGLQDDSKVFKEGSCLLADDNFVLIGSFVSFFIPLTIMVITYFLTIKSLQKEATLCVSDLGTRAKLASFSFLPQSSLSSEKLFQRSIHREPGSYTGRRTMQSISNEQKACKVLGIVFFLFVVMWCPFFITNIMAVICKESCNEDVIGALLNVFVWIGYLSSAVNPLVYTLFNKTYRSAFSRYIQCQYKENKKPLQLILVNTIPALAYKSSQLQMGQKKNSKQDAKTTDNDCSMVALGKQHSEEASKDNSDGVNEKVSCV

SMILES | Ki [1] [nM] | Ki [2] [µM] | Ki [3] [nM] | Ki [4] [nM] | Kp at 1 h [5] | Inference, amphetamine antagonism (hyperlocomotion) [6] | AUC(0-t) [7, 9] [ng·h/mL] | clearance [7, 9] [mL/min/kg] | half-life [7, 9] [h] | bioavailability ([7]; oral 3 mg/kg vs intravenous 1 mg/kg, male Wistar rats, read-out: F (Bioavailability)) [%] | AUC(0-t) [7, 10] [ng·h/mL] | Cmax [7, 10] [ng/mL] | half-life [7, 10] [h] | Inference, tardive dyskinesia test (VCMs and TPs vs vehicle group) [8]
O=C1C[C@H]2CCCN2C(=O)N1C[C@H]1CCCC[C@H]1CN1CCN(c2nsc3ccccc23)CC1 [Example 27, 2-[2-(4-Benzo[d]isothiazol-3-yl-piperazin-1-ylmethyl)-cyclohexylmethyl]-tetrahydro-pyrrolo[1,2-c]pyrimidine-1,3-dione oxalate] | 2 | > 10 | 4.7 | 0.2 | 1.21 ± 0.13 | Active | 360 ± 10 | 45 ± 1.3 | 2.4 ± 0.4 | 16 ± 8 | 173 ± 92 | 186 ± 109 | 1.8 ± 0.1 | –
CCCCCCCCCC(=O)OC1(c2ccc(Cl)cc2)CCN(CCCC(=O)c2ccc(F)cc2)CC1 [Haloperidol decanoate, reference compound] | – | – | – | – | – | – | – | – | – | – | – | – | – | Increased number of VCMs and TPs
